This is an account of results in ChEMBL document CHEMBL2203150, “CXCR3 antagonists: quaternary ammonium salts equipped with biphenyl- and polycycloaliphatic-anchors” (Bioorg Med Chem, 2011).

The assay deals with T1, C-X-C chemokine receptor type 3 (Homo sapiens, UniProt P49682).
T1 sequence (P49682 whole entry): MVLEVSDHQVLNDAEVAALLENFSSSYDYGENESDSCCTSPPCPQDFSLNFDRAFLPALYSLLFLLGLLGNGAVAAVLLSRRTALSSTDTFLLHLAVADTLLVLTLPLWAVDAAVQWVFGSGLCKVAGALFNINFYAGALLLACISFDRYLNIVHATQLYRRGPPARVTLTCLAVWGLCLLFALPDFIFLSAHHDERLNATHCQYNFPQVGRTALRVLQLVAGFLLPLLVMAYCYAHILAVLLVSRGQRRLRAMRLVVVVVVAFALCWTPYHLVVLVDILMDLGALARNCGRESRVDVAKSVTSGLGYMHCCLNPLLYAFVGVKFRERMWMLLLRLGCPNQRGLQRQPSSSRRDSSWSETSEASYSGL
Briefly: Displacement of [125I]-CXCL10 from human CXCR3 expressed in HEK293 cells. It is filed as cell-based.
On to `Cn1c2ccccc2c2ccc(C[N+](C)(C)CC3=CC[C@H]4C[C@@H]3C4(C)C)cc21`, for which the Ki was 1 µM.

With `CN(CC1=CC[C@H]2C[C@@H]1C2(C)C)Cc1ccccc1`, the affinity, expressed as Ki, was 15.8 µM. The value for `CC1(C)[C@H]2CC=C(C[N+](C)(C)Cc3cccc(I)c3)[C@@H]1C2` was 2 µM; that for `CC1(C)[C@H]2CC=C(C[N+](C)(C)Cc3ccc(-c4cccc([N+](=O)[O-])c4)cc3)[C@@H]1C2` was 0.2 µM; that for `CC1(C)[C@H]2CC=C(C[N+](C)(C)Cc3ccc(Oc4ccccc4)cc3)[C@@H]1C2` was 2 µM. `CC1(C)[C@H]2CC=C(C[N+](C)(C)Cc3ccccc3I)[C@@H]1C2`: the Ki is 1.58 µM. `CC1(C)[C@H]2CC=C(C[N+](C)(C)Cc3ccc(Br)cc3)[C@@H]1C2` gave a Ki of 0.316 µM. The result for `CN(CC1=CC[C@H]2C[C@@H]1C2(C)C)Cc1ccc(-c2cccc(N)c2)cc1` reads 6.31 µM; that for `CN(CC1=CC[C@H]2C[C@@H]1C2(C)C)Cc1ccc(-c2ccccc2)cc1`, 3.16 µM. On to `CC1(C)[C@H]2CC=C(C[N+](C)(C)Cc3ccccc3)[C@@H]1C2`, for which the Ki is 3.98 µM. For the compound `CN(CC1=CC[C@H]2C[C@@H]1C2(C)C)Cc1cccc(-c2ccccc2)c1`, the Ki was greater than 0.316 µM. As to `CN(C/C1=C/CCCCCC1)Cc1ccc(I)cc1` (mixture of isomers), affinity was put at a Ki of 7.94 µM. The result for `CC1(C)[C@H]2CC=C(C[N+](C)(C)Cc3ccc(-c4ccc(C(F)(F)F)cc4)cc3)[C@@H]1C2` reads 1.26 µM; that for `CN(CC1=CC[C@H]2C[C@@H]1C2(C)C)Cc1ccc(-c2ccc(Cl)cc2)cc1`, greater than 0.316 µM; that for `CN(CC1=CC[C@H]2C[C@@H]1C2(C)C)Cc1ccccc1I`, 5.01 µM.

`CN(CC1=CC[C@H]2C[C@@H]1C2(C)C)Cc1ccc(-c2ccc(C(F)(F)F)cc2)cc1` showed a Ki greater than 0.316 µM. The result for `CC1(C)[C@H]2CC=C(C[N+](C)(C)Cc3ccc(-c4ccccc4F)cc3)[C@@H]1C2` reads 0.631 µM; that for `CCN(CC1=CC[C@H]2C[C@@H]1C2(C)C)Cc1ccc(I)cc1`, 3.98 µM. The result for `CC1(C)[C@H]2CC=C(C[N+](C)(C)Cc3ccc(-c4ccc(Cl)cc4)cc3)[C@@H]1C2` reads 0.501 µM; that for `CN(CC1=CC[C@H]2C[C@@H]1C2(C)C)Cc1ccc(-c2cccc([N+](=O)[O-])c2)cc1`, 2 µM; that for `CN(CC1=CC[C@H]2C[C@@H]1C2(C)C)Cc1ccc(-c2cccc(C(F)(F)F)c2)cc1`, greater than 0.316 µM. `CN(CC1=CC[C@H]2C[C@@H]1C2(C)C)Cc1ccc(-c2cccc(Cl)c2)cc1` had a Ki of 3.98 µM.

As to `CN(CC1=CC[C@H]2C[C@@H]1C2(C)C)Cc1ccc2oc3ccccc3c2c1`, the Ki was greater than 0.316 µM. For `CC1(C)[C@H]2CC=C(C[N+](C)(C)Cc3ccc4c(c3)Cc3ccccc3-4)[C@@H]1C2`, the affinity, expressed as Ki, was 0.501 µM.

As for `CC1(C)[C@H]2CC=C(C[N+](C)(C)Cc3ccc(-c4cccc(C(F)(F)F)c4)cc3)[C@@H]1C2`, the Ki was 0.501 µM. The result for `CN(CC1=CC[C@H]2C[C@@H]1C2(C)C)Cc1ccc(-c2cccc(F)c2)cc1` reads 2.51 µM; that for `CN(CCc1ccc(Cl)cc1)CC1=CC[C@H]2C[C@@H]1C2(C)C`, 5.01 µM.

For the compound `CC1(C)[C@H]2CC=C(C[N+](C)(C)Cc3ccc(F)cc3)[C@@H]1C2`, affinity was put at a Ki of 1.26 µM. The value for `CC1(C)[C@H]2CC=C(C[N+](C)(C)Cc3ccc(-c4ccoc4)cc3)[C@@H]1C2` was 0.251 µM. On to `Cc1cccc(-c2ccc(CN(C)CC3=CC[C@H]4C[C@@H]3C4(C)C)cc2)c1`, for which the Ki was greater than 0.316 µM. The value for `CC1(C)[C@H]2CC=C(CN3CCc4ccccc4C3)[C@@H]1C2` was 12.6 µM; that for `CC1(C)[C@H]2CC=C(C[N+](C)(C)Cc3cccc(-c4ccccc4)c3)[C@@H]1C2` was 3.16 µM.

`CN(CC1=CC[C@H]2C[C@@H]1C2(C)C)Cc1ccc2c3ccccc3n(C)c2c1` had a Ki greater than 0.316 µM. With `Ic1ccc(CNCC2C3CC4CC(C3)CC2C4)cc1` (centres undefined), affinity was put at a Ki of 2.51 µM. Compound `CN(CCC12CC3CC(CC(C3)C1)C2)Cc1ccc(I)cc1` had a Ki of 5.01 µM. Regarding `CC(=O)c1cccc(-c2ccc(C[N+](C)(C)CC3=CC[C@H]4C[C@@H]3C4(C)C)cc2)c1`, the Ki was 0.631 µM. Compound `C[N+](C)(C/C1=C/CCCCCC1)Cc1ccc(I)cc1` (mixture of isomers) had a Ki of 1 µM.

The compound `CN(Cc1ccc(I)cc1)CC1C2CC3CC(C2)CC1C3` (centres undefined) gave a Ki of 7.94 µM. For the compound `CC(=O)c1cccc(-c2ccc(CN(C)CC3=CC[C@H]4C[C@@H]3C4(C)C)cc2)c1`, the Ki is greater than 0.316 µM. Consider `CN(CC1=CC[C@H]2C[C@@H]1C2(C)C)Cc1ccc2c(c1)Cc1ccccc1-2`, for which the Ki was greater than 0.316 µM. The value for `CC1(C)[C@H]2CC=C(C[N+]3(C)CCc4ccccc4C3)[C@@H]1C2` (some centres undefined) was 2.51 µM.

`CC1(C)[C@H]2CC=C(C[N+](C)(C)Cc3ccc(-c4cccc(O)c4)cc3)[C@@H]1C2` showed an inhibitory constant (Ki) of 1.58 µM. The result for `CN(CC1=CC[C@H]2C[C@@H]1C2(C)C)Cc1ccc(-c2ccccc2F)cc1` reads greater than 0.316 µM.

The compound `CC1(C)[C@H]2CC=C(C[N+](C)(C)Cc3ccc4oc5ccccc5c4c3)[C@@H]1C2` gave a Ki of 0.501 µM. With `CC1(C)[C@H]2CC=C(C[N+](C)(C)CCc3ccc(Cl)cc3)[C@@H]1C2`, the affinity, expressed as Ki, was 1 µM.

In turn, `CC1(C)[C@H]2CC=C(C[N+](C)(C)Cc3ccc(Cl)c(Cl)c3)[C@@H]1C2` showed a Ki of 0.398 µM. `C[N+](C)(CCC12CC3CC(CC(C3)C1)C2)Cc1ccc(I)cc1` showed a Ki of 0.631 µM. In the case of `COc1ccc(-c2ccc(CN(C)CC3=CC[C@H]4C[C@@H]3C4(C)C)cc2)cc1OC`, the Ki is greater than 0.316 µM. `Cc1cccc(-c2ccc(C[N+](C)(C)CC3=CC[C@H]4C[C@@H]3C4(C)C)cc2)c1` showed a Ki of 0.398 µM. Compound `CC1(C)[C@H]2CC=C(C[N+](C)(C)Cc3ccc(-c4ccccc4)cc3)[C@@H]1C2` showed an inhibitory constant (Ki) of 0.316 µM. Consider `CC1(C)[C@H]2CC=C(C[N+](C)(C)Cc3ccc(-c4cccc(F)c4)cc3)[C@@H]1C2`, for which the affinity, expressed as Ki, was 0.316 µM. `CN(CC1=CC[C@H]2C[C@@H]1C2(C)C)Cc1ccc(Oc2ccccc2)cc1` had a Ki greater than 0.316 µM. The result for `CN(CC1=CC[C@H]2C[C@@H]1C2(C)C)Cc1ccc(-c2cc(Cl)cc(Cl)c2)cc1` reads greater than 0.316 µM; that for `CN(CC1=CC[C@H]2C[C@@H]1C2(C)C)Cc1ccc(Br)cc1`, 3.16 µM. Compound `CN(CC1=CC[C@H]2C[C@@H]1C2(C)C)Cc1ccc(Cl)cc1` had a Ki of 2.51 µM. The value for `C[N+](C)(Cc1ccc(I)cc1)CC12CC3CC(CC(C3)C1)C2` was 2 µM; that for `C[N+](C)(Cc1ccc(I)cc1)CC1C2CC3CC(C2)CC1C3` (centres undefined) was 0.794 µM.

In turn, `CN(CC1=CC[C@H]2C[C@@H]1C2(C)C)Cc1ccc(-c2ccoc2)cc1` had a Ki of 6.31 µM. The value for `COc1ccc(-c2ccc(C[N+](C)(C)CC3=CC[C@H]4C[C@@H]3C4(C)C)cc2)cc1OC` was 0.501 µM.

Usually Ki stands for a measure of affinity in units of concentration, obtained from inhibition or displacement. The low end stands for a stronger hold on the target, the high end for a looser hold on the target.
